Type in all cases: cell-based
Data set [1] has as its system C. albicans strain SC5314. As to the kind of experiment: Biofilm formation on dentures (crystal violet). As to conditions: for C. albicans biofilm on PFM dental crowns (CV staining) / C. albicans biofilm on acrylic dental crowns (CV staining) / C. albicans biofilm on dental alloy substructures (CV staining): 72 h biofilm, then ILs 25 µM for 2 h; for Visual eradication of C. albicans biofilm formed on dentures: dentures of different materials taken together, ILs 25 µM, 2 h. An excerpt:
We evaluated the ability of ILs to eradicate C. albicans biofilm formation on a number of dentures, namely acrylic dental crowns, PFM dental crowns and dental alloy substructures (Figure 2). This approach has the following disadvantage: impossibility of reliable biofilm quantification. However, during in vivo Candida spp. infections and biofilm formation, the fungi attach themselves into porous structure of dentures, and thus we selected them for the studies over commonly used discs. Here, an IL concentration of 25 µM was selected for this investigation. In each condition, a C. albicans biofilm was formed after 72 h incubation, and the collected biomass was microscopically evaluated for the presence of hyphae, pseudohyphae and blastoconidia characteristic of C. albicans (Figure 2). Next, the materials were treated with ILs for 2 h and stained with crystal violet (CV). […] Microscopic observations of the stained biomass from dentures exposed to both 1a and 1b (Figure 2, white arrows) confirmed the presence of C. albicans hyphae and blastoconidia (data not shown).
To assess the influence of ILs on biofilm formation by C. albicans strain SC5314 on dentures, the following materials were used: acrylic dental crowns, porcelain-fused-to-metal (PFMs) dental crowns and dental alloy substructures. All dentures were kind gifts from Prof. M. Łukaszewicz (Wrocław, Poland). Prior to the experiments, the dentures were sterilized by 1 h incubation in 70% pure ethanol (EtOH) solution, washed with sterile water to remove EtOH residues and dried under aseptic conditions. The experiments were performed by aseptically placing dentures in YPD, supplemented with FBS, and inoculating them with YPD-grown C. albicans suspension (0.01% Vol/Vol). After 72 h of incubation at 37 °C, the dentures were treated for 2 h with the addition of ILs (conc. = 25 µM), washed with PBS and fixed with 0.1% CV solution for 10 min, then washed with PBS to remove the stain residue. The dentures were then dried and photographed. Microscopic preparations were made of biofilm samples which were imaged using the Zeiss Axio Imager A2 microscope equipped with Zeiss Axiocam 503 mono microscope camera.

For another data set, the system named is C. glabrata ATCC90030. As to the kind of experiment: Minimal inhibitory and fungicidal concentrations (broth microdilution, CLSI M27-A3 modified). The conditions noted are these: Nakaseomyces glabratus, 28 °C; for MFC: 120 h, replated on YPD agar, 5 days, read-out: Minimal fungicidal concentration (MFC); for MIC90: ≥90% growth inhibition, 48 h, YPD, read-out: Minimal inhibitory concentration (MIC90). The procedure: (§1) Experiments were performed according to the Clinical and Laboratory Standards Institute (2008), 3rd ed. M27-A3 [51], with modifications described previously. Briefly, MICs were determined by serially diluting ILs in YPD medium in sterile 96-well plates (Sarstedt) and inoculating with fungal suspensions (final OD600 per well = 0.01). After incubation (48 h; 28 °C), the OD600 was measured (ASYS UVM 340 Biogenet). […] Each well was then replated on YPD agar and incubated for 5 days at 28 °C.

The next data set deals with sheep erythroid PMs. As to the kind of experiment: Hemolysis assay. As to conditions: sheep RBCs. On the procedure: To examine any possible toxic effect towards animal cells, ILs were tested for their lytic activity on sheep erythroid PMs, in comparison to AMB (Table 3). For this part of study, higher concentrations were selected, corresponding to MFC values of tested fungi (12.5; 25 and 50 µM in case of ILs, and 0.25; 0.5 and 1 µM in case of AMB, Table 1). The compounds were ranked in terms of hemolytic activity as follows: 1a > 1b > 2a. IL with alkoxymethyl chain (2a) produced <5% hemolysis, regardless of the concentration used. Compounds with alkyl substituents (1a and 1b) were more hemolytic in 12.5 than in 25 µM concentrations, and in the highest concentration (50 µM), both compounds produced >10% and >5% hemolysis, respectively.
ILs were tested for hemolytic activity, as described previously. Briefly, 5 mL of fresh sheep blood was centrifuged (2000 rpm, 15 min), washed with PBS and resuspended in PBS to achieve hematocrit level of 50%. Red blood cells (RBCs) were treated with ILs (concentrations = 12.5, 25 and 50 µM) for 2 h at 37 °C. Afterwards, RBCs were centrifuged (2000 rpm, 5 min) and the absorbance of the supernatant was measured at 540 nm (ASYS UVM 340 Biogenet). The percentage of hemolysis was determined in comparison to the hemoglobin absorbance released by a 1% SDS solution (100% hemolysis).

The subject of the next data set is C. albicans Gu5. Nature of the data set: MIC90 and MFC towards clinical isolates. The conditions noted are these: Candida albicans. The procedure: as §1
(§2) The effect of imidazolium ILs based on of (1R,2S,5R)‐(−)‐menthol was evaluated on clinical, fluconazole(FLC)‐resistant and FLC‐sensitive C. albicans isolates. C. albicans Gu4 and Gu5 strains were isolated from a patient before and after fluconazole administration, respectively.
(§3) Azole‐resistance of Gu5 origins in overexpression of CDR1 and CD R2. C. albicans B3 and B4 strains […]
(§4) Azole‐resistance of B4 results from overexpression of MDR1. The strains were generous gifts from Prof. S. Milewski (Gdańsk, Poland) and Prof. J. Morschhäuser (Wurzburg, Germany). They are originally referenced in: Franz, R., Ruhnke, M. & Morschhäuser, J. Molecular aspects of fluconazole resistance development in Candida albicans. Mycoses 42, 453–458, (1999).
(§5) Table S1 summarizes the minimal inhibitory and fungicidal concentration (MIC90 and MFC, respectively) values of ILs tested against the C. albicans isolates (for ILs structures see section 5.2. in the mai n text). No difference in case of MIC90 values between the strains was observed. However, MFC values were two‐fold lower for the compounds 1b and 2a in case of B3 and B4 isolates. The MFC value of the compound 1a wa s two‐fold higher on ly in ca se of Gu5 strain.
(§6) Table S1. Minimal inhibitory concentrations (MIC90; μM) and minimal fungicidal concentrations (MFC; μM) of ionic liquids (ILs ) or fluconazole (FLC) towards clinical C. albicans isolates.

The test system of another data set is C. albicans B3. Nature of the data set: MIC90 and MFC towards clinical isolates. The conditions noted are these: Candida albicans, clinical isolate B3 (FLC-sensitive); for MFC: read-out: Minimal fungicidal concentration (MFC); for MIC90: read-out: Minimal inhibitory concentration (MIC90). On the procedure:
as §1, §2, §3, §4, §5, §6

In the next data set the test system is C. albicans B4. Nature of the data set: MIC90 and MFC towards clinical isolates. The conditions noted are these: Candida albicans. The procedure: as §1, §2, §3, §4, §5, §6
Another data set has as its system C. albicans Gu4. As to the kind of experiment: MIC90 and MFC towards clinical isolates. As to conditions: Candida albicans, clinical isolate Gu4 (FLC-sensitive); for MFC: read-out: Minimal fungicidal concentration (MFC); for MIC90: read-out: Minimal inhibitory concentration (MIC90). The procedure: as §1, §2, §3, §4, §5, §6
Where [2] appears, read: ILs conc. 12.5 µM, 2 h, 37 °C, 1% SDS = 100% hemolysis.
Setting [3] is: ILs conc. 25 µM, 2 h, 37 °C, 1% SDS = 100% hemolysis.
Where [4] appears, read: ILs conc. 50 µM, 2 h, 37 °C, 1% SDS = 100% hemolysis.
Where [5] appears, read: GU5, read-out: Minimal fungicidal concentration (MFC).
The mark [6] stands for this setting: GU5, read-out: Minimal inhibitory concentration (MIC90).
[7] abbreviates: B4, read-out: Minimal fungicidal concentration (MFC).
The mark [8] stands for this setting: B4, read-out: Minimal inhibitory concentration (MIC90).

The source of these data is paper PMC8304783, “Antiadhesive Properties of Imidazolium Ionic Liquids Based on (−)-Menthol Against Candida spp” (International Journal of Molecular Sciences, 2021).

Read-outs that look alike come from different tables or passages of the source.

On to `CCCCCCCCCn1cc[n+](CO[C@@H]2C[C@H](C)CC[C@H]2C(C)C)c1` [1a, 1-[(1R,2S,5R)-(−)-menthoxymethyl]-3-nonylimidazolium chloride], for which the “C. albicans biofilm on PFM dental crowns (CV staining)” value in data set [1] was “residual CV staining was observed”. In addition, the “C. albicans biofilm on acrylic dental crowns (CV staining)” value in data set [1] is recorded as “residual CV staining was observed”. Further, the “C. albicans biofilm on dental alloy substructures (CV staining)” value in data set [1] is given as “residual CV staining was observed”. The “Visual eradication of C. albicans biofilm formed on dentures” value (from here on “Visual eradication”) in data set [1] is reported as “partially”. Besides, the MFC with C. glabrata ATCC90030 was found to be 25 µM; with C. albicans Gu5 (clinical isolate Gu5 (FLC-resistant, CDR1/CDR2 overexpression), read-out: Minimal fungicidal concentration (MFC)) it was 50 µM; in the data set on C. albicans B3, 25 µM; in the data set on C. albicans B4 (clinical isolate B4 (FLC-resistant, MDR1 overexpression), read-out: Minimal fungicidal concentration (MFC)), 25 µM; with C. albicans Gu4, 25 µM. In addition, the MIC90 was determined as 12.5 µM in the data set on C. glabrata ATCC90030; 12.5 µM with C. albicans Gu5 (clinical isolate Gu5 (FLC-resistant, CDR1/CDR2 overexpression), read-out: Minimal inhibitory concentration (MIC90)); 12.5 µM in the data set with C. albicans B3; 12.5 µM in the data set with C. albicans B4 (clinical isolate B4 (FLC-resistant, MDR1 overexpression), read-out: Minimal inhibitory concentration (MIC90)); 12.5 µM with C. albicans Gu4. The Hemolytic activity in the data set on sheep erythroid PMs (setting [2]) was 4.81 ± 0.02 %; in the data set with sheep erythroid PMs (setting [3]) it was 1.51 ± 0.53%; in the data set with sheep erythroid PMs (setting [4]), 11.56 ± 2.13%.
In the case of `CCCCCCCCCCn1cc[n+](CO[C@@H]2C[C@H](C)CC[C@H]2C(C)C)c1` [1b, 3-decyl-1-[(1R,2S,5R)-(−)-menthoxymethyl]imidazolium chloride], the “C. albicans biofilm on PFM dental crowns (CV staining)” value in data set [1] is “residual CV staining was observed”. In addition, the “C. albicans biofilm on acrylic dental crowns (CV staining)” value in data set [1] is given as “residual CV staining was observed”. Also, the “C. albicans biofilm on dental alloy substructures (CV staining)” value in data set [1] is recorded as “residual CV staining was observed”. Also, the “Visual eradication” value in data set [1] is given as “partially”. Besides, the MFC amounted to 25 µM in the data set with C. glabrata ATCC90030; 50 µM in the data set on C. albicans Gu5 (setting [5]); 25 µM with C. albicans B3; 25 µM in the data set with C. albicans B4 (setting [7]); 50 µM with C. albicans Gu4. The MIC90 in the data set on C. glabrata ATCC90030, with C. albicans Gu5 (setting [6]), in the data set with C. albicans B3, in the data set on C. albicans B4 (setting [8]) and in the data set with C. albicans Gu4 was 25 µM in each case. Further, the Hemolytic activity was 2.1 ± 0.36% with sheep erythroid PMs (setting [2]), 3.01 ± 0.39% in the data set with sheep erythroid PMs (setting [3]) and 3.23 ± 0.6% in the data set with sheep erythroid PMs (setting [4]).
In the case of `CCCCCCCCCOCn1cc[n+](CO[C@@H]2C[C@H](C)CC[C@H]2C(C)C)c1` [2a, 1-(1R,2S,5R)-(−)-menthoxymethyl-3-nonyloxymethylimidazolium chloride], in data set [1], the “C. albicans biofilm on PFM dental crowns (CV staining)” value is reported as “did not fully protect”. Moreover, the “C. albicans biofilm on acrylic dental crowns (CV staining)” value in data set [1] is listed as “protected”. The “C. albicans biofilm on dental alloy substructures (CV staining)” value in data set [1] is reported as “protected”. In data set [1], the “Visual eradication” value is “totally”. Moreover, the MFC was found to be 12.5 µM in the data set with C. glabrata ATCC90030; 25 µM in the data set on C. albicans Gu5 (setting [5]); 12.5 µM in the data set on C. albicans B3; 12.5 µM in the data set on C. albicans B4 (setting [7]); 25 µM in the data set with C. albicans Gu4. Besides, the MIC90 with C. glabrata ATCC90030, in the data set with C. albicans Gu5 (setting [6]), with C. albicans B3, in the data set on C. albicans B4 (setting [8]) and in the data set with C. albicans Gu4 was 12.5 µM in each case. In addition, the Hemolytic activity in the data set on sheep erythroid PMs (setting [2]) was 4.55 ± 0.82%; with sheep erythroid PMs (setting [3]) it was 1.78 ± 0.44%; in the data set with sheep erythroid PMs (setting [4]), 6.09 ± 0.48 %; in the data set with sheep erythroid PMs (regardless of the concentration used (12.5; 25 and 50 µM)), less than 5%.
